# What was measured:
# ODN PPT = test: Stability of the dendriplexes at different pHs; type: physicochemical; settings: dendriplexes with PPT, 2/1 charge ratio; pHs 2.8; 2.7; 4.7; 5.7; 6.4; 7.4; 8
# Procedure: Stability studies were carried out on the complexes a different pHs, to determine how the changes in pH would affect the complex, since there are different anatomic, tissue or cell localizations in which the pH acidifies or alkalinifies. Examples are stomach ambient acid, the alkali of the pancreatic secretions of the small intestine, or at a cellular level, the endosome-lisosome behaviour, where it changes from a physiological pH (7.35-7.45) to an acid pH around 4. It is interesting to know, therefore, in what pH range the DNA complex could be maintained with the different CBS used. The complexes were formed following the habitual process and volumes were added in excess of different solutions at different pHs. Therefore, for each one of dendrimers Phe, ClNH4, NN, IM8 and IM16, according to Example 31, 7 solutions were prepared of dendriplexes formed with PPT, in a 2/1 charge ratio and with the following pHs: […]; 2.7; 4.7; 5.7; 6.4; 7.4; 8: The results produced are shown in the electrophoresis gels which appear in FIG. 4, wherein the height of the normal ODN migration band is shown with arrows in the lower part of the gels. The samples were loaded from left to right following an increasing pH order. No sample was formed in the wells indicated with an X.
# [1] = tested on: peripheral blood mononuclear cells (PBMC); test: Visual examination of PBMC incubated with dendrimers; type: cell-based, human; settings: for visual examination of PBMC: 48 hours
# Procedure: (§1) The toxicity of dendrimers IM8, IM16, ClNH4, NN, Phe and the commercial controls SF (Superfect) and G4 were tested. Different quantities were taken of each one of them so that the final concentrations with which the cells were incubated were 1 μM, 5 μM, 10 μM, 20 μM and 100 μM.
# (§2) The blood came from adult donors or the umbilical cord of health newborns. Said blood was diluted ½ with PBS and it was centrifuged in a Ficoll gradient. After said centrifugation, the PBMC halo was recovered and two subsequent washing-centrifuging cycles were carried out. The resulting PBMC were resuspended in complete culture medium with 10% FCS, antibiotics and glutamine.
# (§3) 100 μl of 10% complete medium of foetal calf serum, antibiotics and glutamine were added to a volume of 60 μl of RPMI with the corresponding dendrimer tested. 160 μl were then added to the cells seeded in 340 μl, completing a final volume of 500 μl. The cells were incubated in this way for 48 hours and then the effect of the incubation with the dendrimers was evaluated by its visual examination and by the evaluation of the mitochondrial activity.
# [2] = tested on: peripheral blood mononuclear cells (PBMC); test: Mitochondrial activity: MTT on PBMC; type: cell-based, human; settings: for Cell viability after incubation with dendrimers according to MTT: 48 hours, relative to untreated control
# Procedure: as §1, §2, §3
# A curve of mitochondrial activity was performed of the dendrimer concentration after 48 hours. […] It is a […] test based on the selective capacity of the cells viable for reducing 3-(4,5-dimethylthiazol-2-il)-2,5-diphenyl tetrazolium bromide in insoluble formazan crystals. After 48 hours of incubation of the PBMC with different concentrations of dendrimers in a 96-well plate (100,000/well), the supernatant which contained dendrimer was removed and it was replaced by 200 μl of a culture medium without serum or red phenol (Optimem). To avoid the loss of cells in this step and subsequently of formazan, a modification had been made of the protocol, seeding the PBMC in total human plasma fibronectin (Sigma®) at a concentration of 5-10 μg/ml, so that during the 4-hour incubation they fixed to the bottom of the well. In addition to the 200 μl of Optimem, 20 μl of filtered MTT were added to achieve its sterility (Thiazolyl Blue, Sigma®) in PBS pH 7.4 at a concentration of 5 mg/ml to achieve a final concentration per well of 0.5 mg MTT/ml. After 4 hours of incubation at 37° C. with 5% CO2 atmosphere, the plate was centrifuged at 2000 rpm and the supernatant with the excess MTT that had not reacted was subsequently removed. The formazan crystals were observed under a phase contrast microscope and later dissolved with 200 μl of dimethyl sulfoxide (DMSO). The plate was stirred at 700 rpm in an Eppendorf® stirrer-heater to ensure the correct dissolution of said crystals. The concentration of formazan ([A]) was determined by spectrometry using a plate reader at a wavelength of 570 nm with a reference of 690 nm. The spectrophotometry was calibrated to zero using Optimem without cells. The relative cell viability (%) with respect to the control (untreated cells), based on mitochondrial activity, was calculated based on this formula: [A] test/[A] control×100. Each dendrimer concentration was tested in triplicate, following the guidelines of the ATCC.
# PBMC [3] = test: Lymphoproliferative test (tritiated thymidine); type: cell-based, human; settings: 5 days, average of triplicate
# Procedure: To evaluate the antigenic capacity of CBS dendrimers, a lymphoproliferative test was performed. The experiment was prepared in triplicate in a 96-well flat bottomed plate (100,000 cells per well in 200 μl of complete human AB medium with antibiotics, glutamine and 10% AB serum). […] After 5 days of incubation at 37° C. with 5% atmosphere of CO2 100 μl of supernatant was removed, then adding 100 μL of a medium with an isotopic intercalating agent of DNA, tritiated thymidine (prepared with 10% AB medium and Thymidine 1/100). The plate was then filtered using a Harvester passing its content through a filter, which was left to dry overnight (approx. 16 hours). After this period, a sheet of Methylex® containing scintillation medium was heat-melted, and it was read in a gamma camera to evaluate the number of counts (greater the counts, more proliferation). The results, which are shown below in Table 8, are expressed as tritiated thymidine counts per minute (cpm). Each result of each concentration was performed in triplicate, the value which appears in the table being the average of the 3. The PHA and the control were tested 12 times.
# PBMC [4] = test: Staining with Trypan Blue of PBMC treated with dendriplexes or dendrimers; settings: 72 hours, (+/−)=2/1, IM8 3.93 μM, IM16 1.99 μM, ClNH4 3.98 μM, Phe 1.96 μM, NN 3.94 μM, SF 0.68 μM, G4 100 μM, PPT 0.88 μM (0.34 μM with SF, 1 μM with G4), n = 100 cells per count
smiles,measurement,setting,value
"C[N+](C)(C)CCOc1cc(CO[Si](C)(C)CCC[Si](C)(CCC[Si](CCC[Si](C)(CCC[Si](C)(C)OCc2cc(OCC[N+](C)(C)C)cc(OCC[N+](C)(C)C)c2)CCC[Si](C)(C)OCc2cc(OCC[N+](C)(C)C)cc(OCC[N+](C)(C)C)c2)(CCC[Si](C)(CCC[Si](C)(C)OCc2cc(OCC[N+](C)(C)C)cc(OCC[N+](C)(C)C)c2)CCC[Si](C)(C)OCc2cc(OCC[N+](C)(C)C)cc(OCC[N+](C)(C)C)c2)CCC[Si](C)(CCC[Si](C)(C)OCc2cc(OCC[N+](C)(C)C)cc(OCC[N+](C)(C)C)c2)CCC[Si](C)(C)OCc2cc(OCC[N+](C)(C)C)cc(OCC[N+](C)(C)C)c2)CCC[Si](C)(C)OCc2cc(OCC[N+](C)(C)C)cc(OCC[N+](C)(C)C)c2)cc(OCC[N+](C)(C)C)c1.[I-].[I-].[I-].[I-].[I-].[I-].[I-].[I-].[I-].[I-].[I-].[I-].[I-].[I-].[I-].[I-] [Phe, 2G-[Si(OCH2—(C6H3)-3,5-(OCH2CH2NMe3^+I^−)2)]8]",stability of dendrimer-ODN complex at the pHs tested,ODN PPT,stable at all pHs tested
same,toxicity for the lymphocytes from the visual observation (comparison),[1],least toxic
same,visual examination of PBMC,[1]; 1 μM,O.K
same,visual examination of PBMC,[1]; 5 μM,O.K
same,visual examination of PBMC,[1]; 10 μM,O.K
same,visual examination of PBMC,[1]; 20 μM,Few cells
same,visual examination of PBMC,[1]; 100 μM,Isolated cells.
same,Cell viability after incubation with dendrimers according to MTT,[2]; 1 μM,83%
same,Cell viability after incubation with dendrimers according to MTT,[2]; 5 μM,77%
same,Cell viability after incubation with dendrimers according to MTT,[2]; 10 μM,71%
same,Cell viability after incubation with dendrimers according to MTT,[2]; 20 μM,54%
same,Cell viability after incubation with dendrimers according to MTT,[2]; 100 μM,14%
same,mitochondrial viability (comparison among dendrimers),[2]; increasing concentrations of CBS or SF,greater mitochondrial viability
same,Measurement of the scintillation counter (tritiated thymidine counts),PBMC [3]; 2 μM,146 cpm
same,Measurement of the scintillation counter (tritiated thymidine counts),PBMC [3]; 5 μM,170 cpm
same,"TB+ (%), cells stained with Trypan Blue",PBMC [4],11.3%

# Source: patent US8603493B2, “Carbosilane dendrimers, preparation method thereof and use of same” (Dendrico, S.L., priority 2005, dated 2013)
